According to the OPERA property sets (Mansouri et al. 2018):

Conditions: for log10 BCF / log10 biotransformation half-life (days): fish

Compound `CCO[Si](CC)(OCC)OCC` has a boiling point of 158 °C.

`Nc1cccc2cc(O)ccc12` showed a melting point of 191 °C.

Compound `CC(C)=CCCl` has a boiling point of 109 °C.

For `Cc1c([N+](=O)[O-])cc(C(C)C)c(O)c1[N+](=O)[O-]`, the melting point was 55.5 °C.

Work on `O=C(O)c1cc(Br)cc(Br)c1O` yielded a melting point of 228 °C.

In the case of `NNC(=O)c1cccc(Br)c1`, the melting point is reported as 158 °C.

Compound `C1CCNCC1` has a boiling point of 106 °C, a log10 Henry constant (atm·m³/mol) of -5.35 and a log10 Koa of 4.04. For the same compound, the log10 vapour pressure (mmHg) was 1.51, the melting point was -7 °C and the ready biodegradability was “readily biodegradable”.

For `CC(C)(O)C(=O)c1ccc(OCCO)cc1`, the melting point was 89 °C.

In the case of `CCCC(C)C(=O)O` (stereo unspecified), the boiling point is reported as 196 °C.

`CC(C)(C(=O)O)C(C)(C)C(=O)O` showed a melting point of 200 °C.

In the case of `COP(=O)(NC(C)=O)SC` (stereo unspecified), the log10 Koc (L/kg) is reported as 0.3, the log10 vapour pressure (mmHg) is reported as -5.77 and the melting point is reported as 88 °C. For the same compound, the ready biodegradability was “readily biodegradable”.

In the case of `Clc1ccc2c(oc3c(Cl)c(Cl)c(Cl)c(Cl)c32)c1Cl`, the log10 BCF is reported as 2.78 and the log10 biotransformation half-life (days) is reported as 0.43.

Work on `O=P(O)(O)c1ccccc1` yielded a melting point of 164 °C.

With `OCCN1CC1` the boiling point was 168 °C.

Work on `O=C(c1ccccc1)c1ccccc1O` yielded a melting point of 40 °C.

`CCOC(=O)C(Cl)CCl` (stereo unspecified) showed a boiling point of 184 °C.

For `OCc1ccc2c(c1)OCO2`, the melting point was 58 °C.

In the case of `Nc1ccccc1F`, the boiling point is reported as 175 °C and the melting point is reported as -34.6 °C.

Work on `O=C(O)COc1ccccc1` yielded a boiling point of 285 °C and a melting point of 98.5 °C.

In the case of `COc1ccc2nc(N)sc2c1`, the melting point is reported as 166 °C.

In the case of `C[Si](C)(C)CC(=O)O`, the melting point is reported as 41 °C.

Compound `C=C[Si](C)(C)C` has a boiling point of 55 °C.

`CC=Cc1ccc(O)c(OC)c1` gave a boiling point of 266 °C, a log10 vapour pressure (mmHg) of -1.92 and a melting point of 11.8 °C.

In the case of `N=C(N)S(=O)O`, the ready biodegradability is reported as “readily biodegradable”.

`CCC(O)C(Cl)(Cl)Cl` (stereo unspecified) showed a boiling point of 171 °C.

With `CCC(O)(CC)CC` the boiling point was 142 °C and the melting point was -12.5 °C.

Compound `CCc1cccc(C(C)C)c1` has a boiling point of 192 °C.

For `C#CC(C)O` (stereo unspecified), the boiling point was 106 °C and the melting point was -3 °C.

`Cc1cn[nH]c1` showed a boiling point of 206 °C.

For `COP(=O)(OC)OC(Br)C(Cl)(Cl)Br` (stereo unspecified), the log10 Koc (L/kg) was 2.26, the log10 vapour pressure (mmHg) was -3.7 and the melting point was 27 °C.

Work on `Cc1c(Cl)cc(Cl)c(Cl)c1Cl` yielded a boiling point of 276 °C and a melting point of 94 °C.

For `CCCCNC(=O)NS(=O)(=O)c1ccccc1`, the melting point was 131 °C.

`O=c1cc(O)cc[nH]1` gave a melting point of 278 °C.

Work on `COCC(=NOCC(=O)OC)c1cc(Oc2ccc(C(F)(F)F)cc2Cl)ccc1[N+](=O)[O-]` yielded a melting point of 58 °C.

`O=C1CCC(=O)N1I` gave a melting point of 204 °C.

`CC[C@H]1CC[C@H](C)NC1` showed a log10 vapour pressure (mmHg) of 0.458.

In the case of `O=C(O)C=Cc1cccc([N+](=O)[O-])c1`, the melting point is reported as 179 °C.

Work on `CCCCn1c2ccccc2c2ccccc21` yielded a melting point of 58 °C.

Compound `O=C1OC(=O)c2c(Br)c(Br)c(Br)c(Br)c21` has a melting point of 275 °C.

`O=[N+]([O-])c1cc(F)ccc1F` gave a boiling point of 206 °C and a melting point of -11.7 °C.

Compound `O[C@H]1[C@H]2c3cc4c(cc3CN3CCC(=C[C@@H]1O)[C@H]23)OCO4` has a melting point of 280 °C.

Work on `CC(C)CCCCCCCCCCCO` yielded a melting point of 10.5 °C.

With `CCC(CO)O[N+](=O)[O-]` (stereo unspecified) the log10 Henry constant (atm·m³/mol) was -6.78.

`CN(C)C=O` showed a boiling point of 153 °C, a log10 Henry constant (atm·m³/mol) of -7.13 and a log10 Koa of 4.38. For the same compound, the log10 vapour pressure (mmHg) was 0.588, the melting point was -60.4 °C and the ready biodegradability was “readily biodegradable”. The log10 BCF was -0.1.

In the case of `Clc1cccc(Cl)c1Cl`, the boiling point is reported as 218 °C, the log10 Henry constant (atm·m³/mol) is reported as -2.9 and the log10 Koa is reported as 5.19. The log10 Koc (L/kg) was 3.33, the log10 vapour pressure (mmHg) was -0.678 and the melting point was 53.5 °C. For the same compound, the ready biodegradability was “not readily biodegradable”, the log10 BCF was 2.82 and the log10 biotransformation half-life (days) was 0.92.

For `Cc1ccnc(-c2cc(C)ccn2)c1`, the melting point was 175 °C.

`CCNNCC` gave a boiling point of 85.5 °C and a log10 Koc (L/kg) of 1.18.

`CCCCCCCCCCF` showed a boiling point of 186 °C, a log10 vapour pressure (mmHg) of -0.203 and a melting point of -35 °C.

Work on `CC1(C)NC(=O)NC1=O` yielded a melting point of 178 °C.

Work on `O=[N+]([O-])c1ccc(O)c(O)c1` yielded a melting point of 175 °C.

In the case of `CCC(N)=O`, the boiling point is reported as 213 °C, the log10 vapour pressure (mmHg) is reported as -1.42 and the melting point is reported as 81.3 °C.

In the case of `NC(=O)c1cccc(N)c1`, the melting point is reported as 116 °C.

Compound `Cc1ccc(Cl)cc1[N+](=O)[O-]` has a boiling point of 242 °C, a melting point of 38 °C and a log10 BCF of 1.92.

In the case of `CCCCCCC(=O)OCC(C)C`, the boiling point is reported as 208 °C.

Compound `Cc1ccccc1OC(=O)c1ccccc1` has a boiling point of 309 °C.

Compound `CC1=C(C)C2CCC1C2` has a boiling point of 140 °C.

Work on `C=Cc1c(Cl)cccc1Cl` yielded a melting point of 89 °C.

In the case of `Clc1ccccc1C(c1ccccc1)(c1ccccc1)n1ccnc1`, the melting point is reported as 148 °C.

`CC(=O)Oc1cc(C)ccc1C(C)C` showed a boiling point of 245 °C.

Compound `CCCCCCCCCCCCN1CCCCCC1=O` has a melting point of -7 °C.

For `O=c1oc2ccccc2c(O)c1Cc1c(O)c2ccccc2oc1=O`, the melting point was 290 °C.

Work on `COC(=O)c1ccccc1C(=O)O` yielded a melting point of 83 °C.

Compound `CC(C)c1ccc2c(c1)CC[C@H]1[C@](C)(C(=O)O)CCC[C@]21C` has a log10 BCF of 2.12.

`C=CCN(CC=C)C(=O)C(Cl)Cl` gave a log10 Koc (L/kg) of 1.6, a log10 vapour pressure (mmHg) of -2.22 and a melting point of 5.5 °C.

`O=C(O)C1=CC(=C(c2ccc(O)c(C(=O)O)c2)c2ccc(O)c(C(=O)O)c2)C=CC1=O` gave a melting point of 300 °C.

In the case of `CCCCCCCCCCCC(=O)[O][Na]`, the ready biodegradability is reported as “readily biodegradable”.

`Oc1ccc(-c2ccccc2)cc1Cl` showed a melting point of 77 °C.

`COC(=O)CCC(=O)OC` gave a boiling point of 196 °C, a log10 vapour pressure (mmHg) of -0.387 and a melting point of 19 °C. The ready biodegradability was “readily biodegradable”.

Compound `Cc1nnc(C)s1` has a boiling point of 202 °C and a melting point of 65 °C.

`CCc1ccc2ccccc2c1` showed a boiling point of 258 °C, a log10 Henry constant (atm·m³/mol) of -3.27 and a log10 Koc (L/kg) of 3.76. The log10 vapour pressure (mmHg) was -1.5.

In the case of `O=C1OC(=O)C(F)(F)C1(F)F`, the boiling point is reported as 54.5 °C.

With `CCOC(CO)OCC` the boiling point was 167 °C.
